Tests used:
[1] = target: activated factor IIa (thrombin) (Homo sapiens, UniProt P00734); assay: Measurement of activated factor II (FIIa, thrombin)-inhibitory activity (chromogenic substrate S-2238); format: biochemical; conditions: negative logarithmic value of concentration suppressing reaction rate of control to 50%
Experimental: (§1) Using a 96 well plate (#3396, Costar), Tris-HCl buffer (100 mM, 130 μL) containing 0.02% Tween 20, 0.1% PEG6000 and 0.2 M NaCl was blended with activated factor IIa (thrombin, 0.125 U/mL, 10 μL) and a test compound (10 μL) for 10 min, and a chromogenic substrate (0.1 mM, S-2238, 50 μL) was added. Using microplate reader Benchmark Plus (BIO-RAD), the reaction rate was measured from the time course changes of absorbance at 405 nm. The reaction rate of the control was taken as 100%, and a negative logarithmic value of a concentration at which the reaction rate of the control could be suppressed to 50% was taken as the pIC50 value. The results are shown by pIC50 (IIa) in Table 2.

FXa = FXa (Homo sapiens, UniProt P00742); assay: Measurement of activated factor X activity-inhibitory activity (chromogenic substrate S-2222); format: biochemical; conditions: negative logarithmic value of concentration suppressing reaction rate of control to 50%
FXa, sequence (P00742 235-488 limits assumed): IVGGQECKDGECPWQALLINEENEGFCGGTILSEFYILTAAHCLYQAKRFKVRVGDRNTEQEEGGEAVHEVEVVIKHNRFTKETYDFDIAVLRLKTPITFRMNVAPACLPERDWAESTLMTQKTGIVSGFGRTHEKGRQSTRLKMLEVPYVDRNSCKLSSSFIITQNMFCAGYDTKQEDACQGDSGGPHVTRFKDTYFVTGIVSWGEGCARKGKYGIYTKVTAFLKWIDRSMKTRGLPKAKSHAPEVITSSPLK
FXa, sequence (P00742 41-179 partner limits assumed): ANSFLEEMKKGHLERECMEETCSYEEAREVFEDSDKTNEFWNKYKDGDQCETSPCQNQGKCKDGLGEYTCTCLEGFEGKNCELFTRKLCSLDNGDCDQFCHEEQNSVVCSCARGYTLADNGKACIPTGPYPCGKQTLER
Experimental: as §1, with “with FXa (0.015 U/ml,” for “with activated factor IIa (thrombin, 0.125 U/mL,”, “substrate (0.2” for “substrate (0.1”, “mM, S-2222,” for “mM, S-2238,”, “changes in the” for “changes of”, “pIC50 (FXa)” for “pIC50 (IIa)”

human plasma = assay: Measurement of anti-blood coagulant activity (aPTT measurement method); format: biochemical; conditions: negative logarithmic value of concentration at which aPTT of the control was double-extended
Experimental: The test was performed according to an aPTT measurement method using a fully-automated blood coagulation time measuring apparatus Sysmex CA-1500. In a sample tube (MS-18, Japan Medical Science) were placed DDVP solution (10 mg/ml, DDVP standard product, Wako Corporation, 4 μL), a solution (20 μL) of a test compound, and human plasma (human plasma for blood coagulation test, GCH-100A, Sysmex Corporation, 180 μL) and this was used as a test sample. The test sample (50 μL) was incubated at 37° C. for 1 min, APTT (cephalin derived from rabbit brain, DADE Behiring, 50 μL) was added, and the mixture was further incubated at 37° C. for 2 min. To the sample solution was added calcium chloride (0.02 M, 50 μL), and the time before coagulation of the plasma was automatically measured.
The anti-blood coagulation activity was shown by the negative logarithmic value of a concentration at which aPTT of the control was double-extended as paPTT2.

[2] = Evaluation of stability in plasma; format: in vitro ADME; conditions: human plasma, 37° C., calculated from quantitative lower limit at 2 min when below quantification limit
Experimental: To human plasma (495 μL) was added a solution (5 μL) of the test compound prepared to 100 μg/mL (final drug solution concentration 1 μg/mL), and the mixture was incubated at 37° C. At 0 min, 2 min, 5 min, 10 min, 30 min and 60 min after the addition of the drug solution, 50 μL each was sampled. Acetonitrile (100 μL) was added and the mixture was admixed to discontinue the reaction. After discontinuation of the reaction, a protein elimination treatment was performed by centrifugation (15000 rpm, 5 min). The centrifugation supernatant (20 μL) was diluted with ammonium formate solution (100 mmol/L, pH 4, 180 μL), and subjected to the measurement by LC/MS/MS.
When the value at 2 min after the addition of the drug solution was less than the quantification limit, the half-life was calculated by the following method.
That is, the value at 0 min was taken as the theoretical concentration (1000 ng/mL) and the value at 2 min was taken as the quantitative lower limit concentration. The half-life (T1/2) was calculated from the inclination of the straight line connecting the logarithmic conversion values at the two points.

Row | SMILES | IC50 [1] [µM] | IC50 (FXa) [µM] | half-life at 1 μg/mL [2] [s] | paPTT2 (human plasma)
1 | N=C(N)N1CCc2ccc(OC(=O)C3(COCc4ccccc4)CCN(c4ccncc4)CC3)cc2C1 [compound of Ex. 5, 2-[amino(imino)methyl]-1,2,3,4-tetrahydroisoquinolin-7-yl 4-[(benzyloxy)methyl]-1-(pyridin-4-yl)piperidine-4-carboxylate ditrifluoroacetate] | 20 | 0.501 | – | 5.4
2 | CC(=N)N1CCC(Oc2ccc(COC(=O)c3ccc4c(c3)CN(C(=N)N)CC4)cc2)CC1 [compound of Ex. 15, 4-{[1-(1-iminoethyl)piperidin-4-yl]oxy}benzyl 2-[amino(imino)methyl]-1,2,3,4-tetrahydroisoquinoline-7-carboxylate ditrifluoroacetate] | > 100 | 10 | – | 4.4
3 | CC(=N)N1CCC(Oc2ccc(C(=O)OCc3ccc4c(c3)CN(C(=N)N)CC4)cc2)CC1 [compound of Ex. 16, {2-[amino(imino)methyl]-1,2,3,4-tetrahydroisoquinolin-7-yl}methyl 4-{([1-(1-iminoethyl)piperidin-4-yl]oxy}benzoate ditrifluoroacetate] | > 100 | 5.01 | – | 4.5

Now from value to compound, other results behind:

Row | IC50 [1] [µM] | IC50 (FXa) [µM] | half-life at 1 μg/mL [2] [s] | SMILES | paPTT2 (human plasma)
4 | 39.8 | 1.58 | – | COCC1(C(=O)Oc2ccc3c(c2)CN(C(=N)N)CC3)CCN(c2ccncc2)CC1 [compound of Ex. 6, 2-[amino(imino)methyl]-1,2,3,4-tetrahydroisoquinolin-7-yl 4-methoxymethyl-1-(pyridin-4-yl)piperidine-4-carboxylate ditrifluoroacetate] | 5.4
5 | > 100 | 7.94 | – | N=C(N)N1Cc2ccc(C(=O)OCC3CCN(c4ccncc4)CC3)cc2C1 [compound of Ex. 7, [1-(pyridin-4-yl)piperidin-4-yl]methyl 2-[amino(imino)methyl]isoindoline-5-carboxylate ditrifluoroacetate] | 4.6
6 | > 100 | 0.398 | < 23.7 | N=C(N)N1CCc2ccc(C(=O)OCC3CCN(c4ccncc4)CC3)cc2C1 [compound of Ex. 2, [1-(pyridin-4-yl)piperidin-4-yl]methyl 2-[amino(imino)methyl]-1,2,3,4-tetrahydroisoquinoline-7-carboxylate ditrifluoroacetate] | 5.4
7 | > 100 | 3.16 | – | N=C(N)N1Cc2ccc(COC(=O)C3CCN(c4ccncc4)CC3)cc2C1 [compound of Ex. 8, {2-[amino(imino)methyl]-isoindolin-5-yl}methyl 1-(pyridin-4-yl)piperidine-4-carboxylate ditrifluoroacetate] | <5
8 | 63.1 | 0.0794 | < 23.9 | N=C(N)N1CCc2ccc(COC(=O)C3CCN(c4ccncc4)CC3)cc2C1 [compound of Ex. 3, {2-[amino(imino)methyl]-1,2,3,4-tetrahydroisoquinolin-7-yl}methyl 1-(pyridin-4-yl)piperidine-4-carboxylate ditrifluoroacetate] | 6.1
